Measured values reported in the NIST ThermoML archive (doi:10.1021/je900478c).

Assay: refractive index (Na D-line) (dimensionless); xn = mol fraction of the nth substance listed
Settings: 101 kPa, Liquid, Standard Abbe refractometry

CCCCOCCO [2-butoxyethan-1-ol] + O
refractive index
Settings	x1 = 0.1003	x1 = 0.2	x1 = 0.3	x1 = 0.4	x1 = 0.5	x1 = 0.6	x1 = 0.7	x1 = 0.7999	x1 = 0.9	x1 = 1
283.15 K	1.3785	1.3965	1.4061	1.4118	1.4156	1.41823	1.4199	1.4212	1.4221	1.4226
293.15 K	1.37658	1.39418	1.40355	1.4091	1.4128	1.41532	1.41695	1.41815	1.41905	1.4196
303.15 K	1.374	1.39115	1.40025	1.40562	1.4092	1.4116	1.41315	1.4143	1.4152	1.4157
313.15 K	1.37118	1.3878	1.39655	1.40175	1.4052	1.4075	1.40898	1.41012	1.41095	1.41139
323.15 K	–	1.38385	1.39248	1.3976	1.401	1.4032	1.40465	1.40575	1.4066	1.40701

CCCCOCCOCCO [3,6-dioxa-1-decanol] + O
refractive index
Settings	x1 = 0.1	x1 = 0.2	x1 = 0.2999	x1 = 0.4	x1 = 0.5	x1 = 0.6	x1 = 0.7	x1 = 0.7998	x1 = 0.8999	x1 = 1
283.15 K	1.3916	1.41105	1.42035	1.42548	1.4286	1.4307	1.4323	1.4334	1.4342	1.4347
293.15 K	1.38935	1.40833	1.4174	1.42235	1.42535	1.42735	1.4289	1.4299	1.4307	1.4312
303.15 K	1.38705	1.4057	1.4146	1.41942	1.4224	1.42428	1.4258	1.42675	1.4275	1.42805
313.15 K	1.3842	1.4022	1.4109	1.41568	1.4185	1.4204	1.42185	1.42273	1.4234	1.424
323.15 K	1.3808	1.3982	1.4067	1.4113	1.41405	1.4159	1.41725	1.41815	1.4188	1.4194
